≈ marks a conversion by molar mass, not a printed value. Where “and” joins values, the source holds several entries; their conditions need not be identical. Equal entries are not always repeated. Where two headings read alike, the source gives them in different places.
How the values were obtained:
[1] = test system: A. baumannii YQ4; assay: scanning electron microscopy (SEM) of treated cells; format: cell-based, Acinetobacter baumannii
Method: The log-phase culture of A. baumannii YQ4 was prepared as described above, harvested, and washed once with PBS. The pellets were suspended in PBS supplemented with 1 × COG1410 (16 μg/ml) or 1 × polymyxin B (16 μg/ml) and incubated at 37°C for 30 min. The untreated culture was used as a positive control to observe the morphology of the intact cell. […] After washing three times with PBS, the cells were post-fixed in 1% osmium at 4 °C for 1 h. After washing in distilled water for 1 h, the bacteria were dehydrated in the ascending concentrations of ethanol. Finally, these samples were transferred to ThermoFisher Quattro SEM for image collection after tert-butanol freeze-drying and sputter coating.

[2] = test system: A. baumannii YQ4; assay: Live/Dead BacLight SYTO-9/PI staining, confocal microscopy; format: cell-based, Acinetobacter baumannii
Method: The damage to the cytoplasmic membrane was determined as described previously (Farkas et al., [2017]), with the Live/Dead BacLight bacterial viability kit (Invitrogen L7012). The log-phase culture of A. baumannii YQ4 was washed two times and suspended in PBS with the final OD600 of 0.1. […] Then, the cells were stained with 7.5 μM SYTO-9 and 30 μM propidium iodide (PI) in dark for 15 min. In total, 5 μl of culture was spotted on a clean slide coated with a thin layer of 1% agarose. The fluorescence was observed by Olympus FV3000 confocal laser scanning microscope. For SYTO-9, the excitation and emission were 483 and 503 nm, respectively. For PI, the excitation and emission were 493 and 636 nm, respectively.

[3] = test system: A. baumannii YQ4; assay: ATP leak assay; format: cell-based, Acinetobacter baumannii; conditions: 16 μg/ml COG1410, 16 μg/ml polymyxin B or 32 μg/ml tigecycline (1× MIC), PBS, 37°C, 30 min
Method: ATP leak assay was performed using the Enhanced ATP Assay Kit of Beyotime ([…]) according to the manufacturer's manual. […] The supernatant was harvested and used for the measurement of ATP levels. In total, 100 μl of supernatant was mixed with 100 μl of working solution, and the chemiluminescence was measured by using a Biotek Synergy H1 plate reader. The untreated sample was set as a negative control. The experiments were performed in triplicate.

[4] = test system: A. baumanii YQ4; assay: induction of resistance through serial passage; conditions: sub-MIC exposure, 55 passages
[5] = test system: A. baumannii YQ4; assay: transmission electron microscopy (TEM) of treated cells
[6] = test system: Pseudomonas aeruginosa; conditions: cited from earlier work
Source text: (§1) Supplement Table_1.DOCX, table 1: Table S1. Antibacterial effect of ApoE-derived peptides. | column: MIC (μM) || However, the current pipeline of novel antibiotic development is stagnant, which could not keep pace with these evolving pathogens. The pharmaceutical field turns to seek non-conventional anti-infective agents. The antimicrobial peptides (AMPs) have drawn a lot of attention as novel chemotherapeutic candidates because of their unique mechanisms of action (Mahlapuu et al., [2016]). It is known that the sources of AMPs are diverse, ranging from prokaryotes to humans (Zhang and Gallo, [2016]). One of the most promising AMPs is the protein mimetic peptide, which originates from a functional protei ...

[7] = test system: Staphylococcus aureus; conditions: cited from earlier work
Source text: (§2) Supplement Table_1.DOCX, table 1: Table S1. Antibacterial effect of ApoE-derived peptides. | column: MIC (μM)

[8] = test system: PDR Acinetobacter baumannii YQ4; assay: microbe, parasite or virus in culture; format: cell-based
Method: Strain stocks were maintained at −80°C in 10% glycerol. Bacteria were streaked on fresh plates before each experiment. Most of them were cultured in LB broth containing 10 g/L NaCl at 37°C, except for Mycobacteria in 7H9 broth and Enterococcus in BHI broth. Porphyromonas gingivalis was cultured in BHI broth supplemented with 1 μg/ml vitamin k1, 5 μg/ml hemin, and 5 mg/ml L-cysteine hydrochloride at 37°C in the anaerobic chamber. The minimal inhibitory concentrations (MICs) of antimicrobials were determined using the microdilution method in the corresponding broth.
The pandrug-resistant A. baumannii YQ4 was collected from the clinical laboratory of the second hospital in Nanjing. The complete genome was sequenced by Nanopore, and the data were deposited in the GenBank with accession number CP053033.

[9] = test system: PDR A. baumannii strain YQ4; assay: checkerboard synergy, fractional inhibitory concentration (FIC); format: cell-based, Acinetobacter baumannii; conditions: checkerboard method, 37°C, 20 h, two independent experiments
[10] = test system: Acinetobacter baumannii; conditions: ref (1); cited from earlier work
Source text: as §1

[11] = test system: Escherichia coli; conditions: cited from earlier work
Source text: as §1

[12] = test system: Enterococcus faecium; conditions: ref (1); cited from earlier work
Source text: as §2

[13] = test system: Klebsiella pneumoniae; conditions: cited from earlier work
Source text: as §2

[14] = test system: A. baumannii; conditions: ref De Breij et al., [2018], cited from earlier work
Method: The major challenge for the therapeutic application of AMP is the degradation or inactivation in plasma (Dijksteel et al., [2021]). The bactericidal efficacy of COG1410 was further assessed in plasma. The LC99.9 values of COG1410 in PBS and 50% pooled plasma were 1.4 and 5.6 μM, respectively. This was even better than LL-37-derived AMP, SAAP-148, of which the corresponding LC99.9 values were 1.6 and 12.8 μM, against A. baumannii, respectively (De Breij et al., [2018]).

[15] = Acinetobacter baumannii, Table 2, agent alone, PDR A. baumannii strain YQ4, unit not in the table, μg/ml, read-out: MIC

## polymyxin B [reference compound]
[1]
  cell morphology by SEM: cell lysis and release of cell contents
[2]
  SYTO-9/PI staining of treated cells: red fluorescence
[3]
  ATP leak (extracellular ATP): released more ATP compared to untreated cells
[4]
  increase of MIC after serial passage: 64 fold
[5]
  cell membrane integrity by TEM: collapse of cell walls in most of the cells

## LRKLRKRLL [ApoE141-149, ApoE-derived peptide, location 141-149]
[6]; ref (3)
  MIC, Pa: 30 µM
[7]; ref (3)
  MIC, Sa: void (“void” indicates that the MIC is more than 100 μM)

## CN(C)[C@@H]1C(O)=C(C(N)=O)C(=O)[C@@]2(O)C(O)=C3C(=O)c4c(O)cccc4[C@@](C)(O)[C@H]3C[C@@H]12 [TET, tetracycline]
[8]; [15]
  MIC: 1020 µg/mL (≈ 2300 µM)
[9]
  FIC with COG1410: 0.31

## LRKLRKRLVRLASHLRKLRKRLL [ApoE23, ApoE-derived peptide, locations 141-148+135-149]
[10]
  MIC, Ab: 2 µM and 2.0 µM
[11]; ref (1)
  MIC, Ec: 2.0 µM
[6]; ref (1)
  MIC, Pa: 2.7 µM
[12]
  MIC, Ef: void (“void” indicates that the MIC is more than 100 μM)
[7]; ref (1)
  MIC, Sa: 5.4 µM

## LRVRLASHLRKLRKRLLR [sApoE133-150, ApoE-derived peptide, location 133-150]
[6]; ref (5)
  MIC, Pa: 25/50
[13]; ref (5)
  MIC, Kp: 6.25 µM
[7]; ref (5)
  MIC, Sa: 3.12 µM

## SAAP-148
[14]; 50% pooled plasma
  LC99.9: 12.8 µM
[14]; PBS
  LC99.9: 1.6 µM

## NCC[C@H](O)C(=O)N[C@@H]1C[C@H](N)[C@@H](O[C@H]2O[C@H](CN)[C@@H](O)[C@H](O)[C@H]2O)[C@H](O)[C@H]1O[C@H]1O[C@H](CO)[C@@H](O)[C@H](N)[C@H]1O [AMI, amikacin]
[8]; [15]
  MIC: > 1020 µg/mL
[9]
  FIC with COG1410: >1

## ApoE130−162: fragment containing the receptor-binding domain of ApoE (130–162) (TEELRVRLASHLRKLRKRLLRDADDLQKRLAVY; UniProt P02649 148-180, looked up, fragment)
[11]; ref Azuma et al., [2000]
  antibacterial activity, in words: active
[6]; compared with Escherichia coli, ref Azuma et al., [2000]
  antibacterial activity, in words: to a lesser extent

## LRKLRKRLLLRKLRKRLL [ApoEp, ApoE-derived peptide, locations 141-149+141-149]
[6]; ref (1, 3)
  MIC, Pa: 5 µM
[7]; ref (1, 3)
  MIC, Sa: 35 µM

## O=C(O)c1cn(C2CC2)c2cc(N3CCNCC3)c(F)cc2c1=O [CIP, ciprofloxacin]
[8]; Acinetobacter baumannii
  MIC: 256 µg/mL (≈ 773 µM)
[9]
  FIC with COG1410: 0.8

## CC(C)(O/N=C(\C(=O)N[C@@H]1C(=O)N2C(C(=O)[O-])=C(C[n+]3ccccc3)CS[C@H]12)c1csc(N)n1)C(=O)O [CAZ, ceftazidime]
[8]; Acinetobacter baumannii
  MIC: 512 µg/mL (≈ 937 µM)
[9]
  FIC with COG1410: 0.31

## C[C@@H](O)[C@H]1C(=O)N2C(C(=O)O)=C(S[C@@H]3CN[C@H](C(=O)N(C)C)C3)[C@H](C)[C@H]12 [MERO, meropenem]
[8]; [15]
  MIC: 32 µg/mL (≈ 83.4 µM)
[9]
  FIC with COG1410: 0.56

## LRVRLASHLRKLRKRLL [COG133, ApoE-derived peptide, 133–149 of ApoE]
[6]; ref (5)
  MIC, Pa: 25/50
[13]; ref (5)
  MIC, Kp: 3.12 µM
[7]; ref (5)
  MIC, Sa: void (“void” indicates that the MIC is more than 100 μM)

## gentamycin [GM]
[8]; Table 2, agent alone, PDR A. baumannii strain YQ4, unit not in the table, μg/ml
  MIC: >1,024 μg/ml
[9]
  FIC with COG1410: >1

## LRVRLASHLRKLRKRLLRDADDLQKRLAVY [ApoE30, ApoE-derived peptide, location 133-162]
[11]; ref (2)
  MIC, Ec: 1.3 µM
[6]; ref (2)
  MIC, Pa: 8.1 µM
[7]; ref (2)
  MIC, Sa: 16.2 µM

## WRKWRKRWWWRKWRKRWW [ApoEp-W, ApoE-derived peptide, locations 141-149+141-149]
[13]; ref (4)
  MIC, Kp: <3.3 µM
[7]; ref (4)
  MIC, Sa: <3.3 µM

## CN(C)c1cc(NC(=O)CNC(C)(C)C)c(O)c2c1C[C@H]1C[C@H]3[C@H](N(C)C)C(O)=C(C(N)=O)C(=O)[C@@]3(O)C(O)=C1C2=O [TGC, tigecycline]
[8]; [15]
  MIC: 32 µg/mL (≈ 54.6 µM)
[9]
  FIC with COG1410: 1.06
